Experimental data: patent US9670548B2, “Methods of diagnosing colorectal cancer by detecting FADA expression” (priority 2013, dated 2017)

B1: GST-EC5 fusion protein: purified GST fusion protein carrying the EC5 domain of E-cadherin (protein)
chain: IPEPRTIFFCERNPKPQVINIIDADLPPNTSPFTAELTHGASANWTIQYNDPTQESIILKPKMALEVGDYKINLKLMDNQNKDQVTTLEVSVCDCEGAAGVCRK
modifications: left off: a dimerising Fc or GST
notes: purified GST fusion protein carrying the EC5 domain of E-cadherin

Key:
HCT116 [1] = assay: Real-time quantitative PCR (qPCR) of HCT116; assay type: cell-based, human; conditions: for inhibition of activation of inflammatory genes, mRNA / inhibition of activation of tumor growth genes (Wnt, oncogenes), mRNA: FadAc, 2 hrs incubation
Method: (§1) Total RNA was extracted from CRC cells, xenografts, or clinical specimens. cDNA synthesis and RT-PCR were performed as previously described, using primers listed in Table 1. Data were analyzed by the ΔΔCt method and normalized to the GAPDH or Fn-specific 16S rRNA. To quantify the fadA gene copies, plasmid carrying fadA was serially diluted to 10^2-10^8 fadA copies/μl and used to generate standard curves for Ct values. The fadA gene copies in the clinical samples were calculated based on the standard curves. Each experiment was performed in triplicates and repeated at least three times.

[2] = tested on: E-cadherin-mediated cellular signaling in HCT116; assay: Subcellular fractions of HCT116, Western blot; assay type: cell-based, human; conditions: 50 μM inhibitor pre-incubated 1 hour, FadAc
Description: The following antibodies were used: anti-FadA monoclonal antibody (mAb) 5G11-3G8 (Xu et al., 2007), mAb anti-CDH1 (Abcam or Cell Signaling Tech), polyclonal anti-phospho-CDH1 (ECM Biosciences), mAb anti-GAPDH (Invitrogen), mAb anti-β-catenin (R&D systems), polyclonal anti-phospho-β-catenin (Cell Signaling Tech), mAb anti-LEF/TCF1 (Invitrogen), mAb anti-NFkB (Invitrogen), mAb anti-Myc (Cell Signaling Tech), mAb anti-cyclin D1 (Cell Signaling Tech), mAb anti-EGFR (Cell Signaling Tech), mAb anti-GAPDH (Cell Signaling Tech), mAb anti-PCNA (Cell Signaling Tech), polyclonal goat-anti-mouse or goat-anti-rabbit secondary antibody conjugated with horseradish peroxidase (HRP) (Pierce Biotechnology). Peptides were synthesized by Neo Group, Inc (Cambridge, Mass.). Western blot analyses were performed as previously described.
Cells were incubated with 1 mg/ml of FadAc or mFadA followed by the extraction of subcellular fractions. When indicated, 50 μM of the corresponding protein tyrosine kinase inhibitor (Genistein) and clathrin inhibitor (Pitstop2) were pre-incubated with cells for 1 hour. Membrane, cytosolic and nuclei fractions were prepared using the Compartmental Protein Extraction kit (Millipore) according to the manufacturer's instructions.

Fn [3] = assay: Tissue culture invasion assay, Fn into HCT116; assay type: cell-based, Fusobacterium nucleatum; conditions: for inhibition of Fn invasion of HCT116: MOI 50, 4 hrs
Method: (§2) Cells were seeded in 24-well or 96-well plates at 8×10^4 cells or 2.5×10^4 cells per well in the growth medium and grown to 100% confluent. Bacteria were added to the cells at a multiplicity of infection (MOI) of 50. Following 1 hr incubation at 37° C. in 5% CO2, the monolayers were washed 3 times with D-PBS, pH 7.1, supplemented with Ca^2+ and Mg^2+. Cells were lyzed with water for 20 min at 37° C. Serial dilutions of the lysates were plated onto blood agar plates to enumerate the total cell-associated bacteria. For invasion assays, the bacteria were incubated with the monolayers at 37° C. for 4 hrs, followed by washes with PBS. Fresh media containing 300 μg/ml gentamicin and 200 μg/ml metronidazole were added to the monolayers and incubated for an additional hour to kill extracellular bacteria. The cells were then washed and lyzed with water as described above. The levels of attachment and invasion were expressed as the percentage of bacteria recovered following cell lysis relative to the total number of bacteria initially added. Each experiment was performed in triplicates and repeated at least twice.

Fn [4] = assay: Tissue culture attachment assay, Fn on HCT116; assay type: cell-based, Fusobacterium nucleatum; conditions: for inhibition of Fn attachment of HCT116: MOI 50, 1 hr
Method: as §2

[5] = tested on: Fusobacterium nucleatum (Fn); assay: Fn invasion of endothelial cells; assay type: cell-based; conditions: FIG. 8
Method: as §2

[6] = tested on: RKO cells transfected with CDH1; assay: Cell proliferation assay, RKO cells transfected with CDH1; assay type: cell-based, human; conditions: bacteria at MOI 1000:1
Method: CDH1 transfections were performed as previously described. siRNA assays were performed using the FlexiTube siRNA anti-CDH1 or anti-beta-catenin reagent and All Stars FlexiTube Control siRNA from Qiagen (Valencia, Calif.) according the manufacturer's instructions.
(§3) CRC cells were seeded in 24-well plates at 1×10^4 cells per well in the growth medium. Cells were untreated, or incubated with FadAc or peptides at indicated concentration, or with bacteria at a multiplicity of infection (MOI) of 1000:1. Cell numbers were counted at 24-hour intervals using a hemocytometer. Each experiment was performed in triplicates and repeated at least twice.

[7] = tested on: Fusobacterium nucleatum (Fn); assay: Fn attachment of endothelial cells; assay type: cell-based; conditions: FIG. 8
Method: as §2

HCT116 xenografts [8] = assay: HCT116 xenograft tumor growth in nude mice; assay type: in vivo; conditions: 0.01 μmol peptide with FadAc
Method: (§4) The animal protocol was approved by the Case Western Reserve University Institutional Animal Care and Use Committee. An inoculum of 5×10^6 cells were injected s.c. and bilaterally into 4- to 6-week-old female nude mice (5 per group) as previously described. The mice were randomized to receive one of the following: FadAc or mFadA (each at 80 μg), BSA (0.01 μmol, i.e., 660 μg), or peptide (0.01 μmol), or bacteria at 1×10^7 cfu, at each inoculation site.

HCT116 xenografts [9] = assay: qPCR of HCT116 xenografts; assay type: in vivo, mice; conditions: FadAc or wild-type Fn
Method: as §4, §1

HCT116 [10] = assay: Cell proliferation assay, HCT116; assay type: cell-based, human; conditions: bacteria at MOI 1000:1
Method: as §3

Fn [11] = assay: Immunohistochemical staining of Fn-infected HCT116 xenografts; assay type: in vivo, Fusobacterium nucleatum; conditions: wild-type Fn injected into HCT116 xenografts
Method: Immunofluorescent staining of cells was performed as previously described. Mouse anti-β-catenin mAb and Alexa Fluor 634-conjugated goat anti-mouse polyclonal antibodies were used. IHC analysis of xenograft tumors were performed as previously described, using rabbit anti-Fn polyclonal antibodies. Pre-immune serum from the same rabbit was used as control.
as §4

Row | Molecule | inhibition of activation of inflammatory genes, mRNA (HCT116 [1]) | inhibition of activation of tumor growth genes (Wnt, oncogenes), mRNA (HCT116 [1]) | effect of inhibitor on CRT activation (β-catenin translocation, LEF/TCF, Wnt and oncogenes) [2] | effect of inhibitor on E-cadherin phosphorylation [2] | effect of inhibitor on FadA and E-cadherin internalization [2] | effect of inhibitor on FadA binding to the membranes [2] | inhibition of Fn invasion of HCT116 (Fn [3]) | effect on Fn-stimulated expression of NF-kappaB and cytokines IL-6, 8, and 18 (HCT116 [1]; wild type Fn) | effect of inhibitor on NF kappaB activation [2] | inhibition of Fn attachment of HCT116 (Fn [4]) | block of Fn invasion of endothelial cells [5] | suppression of Fn growth stimulation of CDH1-transfected RKO cells [6] | block of Fn attachment of endothelial cells [7] | effect of peptide on FadAc-stimulated tumor growth (HCT116 xenografts [8]) | inhibition of stimulation of tumor growth genes and inflammatory genes in xenografts (HCT116 xenografts [9]) | inhibition of Fn-stimulated HCT116 growth (HCT116 [10]) | prevention of Fn invasion into tumor tissues (Fn [11]) | concentration of maximum inhibition of Fn invasion of HCT116 (Fn [3]) [µM] | concentration of maximum inhibition of Fn attachment of HCT116 (Fn [4]) [µM]
1 | O=c1c(-c2ccc(O)cc2)coc2cc(O)cc(O)c12 [Genistein] | inhibited | inhibited | abolished | prevented | prevented | abolished | – | – | – | – | – | – | – | – | – | – | – | – | –
2 | O=C1NC(=NS(=O)(=O)c2cccc3ccccc23)S/C1=C\c1ccc(Br)cc1 [Pitstop2] | only inhibited the inflammatory genes | not | unaffected | did not affect | inhibited | did not affect | prevented | abolished | no NF kappaB activation was observed | without affecting attachment | – | – | – | – | – | – | – | – | –
3 | ASANWTIQYND [inhibitory peptide] | – | – | – | – | – | – | minimum required | – | – | minimum required | block | diminished | block | No increase was detected | inhibited | inhibited | prevented | – | –
4 | B1 | – | – | – | – | – | – | inhibited by purified GST-EC5 fusion protein in a dose-dependent manner | – | – | inhibited by purified GST-EC5 fusion protein in a dose-dependent manner | – | diminished | – | – | – | inhibited | – | 0.1 | 0.1
